Earlier results in patent publication US20070260203A1, “Vasoactive agent intraocular implant” (ALLERGAN, INC., priority 2006, published 2007).
Read-outs that look alike come from different tables or passages of the source.

Tests used:
endothelin-A receptor = target: T1, endothelin-A receptor (Homo sapiens, UniProt P25101); details: competitive antagonist of both ETA and ETB
T1 sequence (P25101 21-427): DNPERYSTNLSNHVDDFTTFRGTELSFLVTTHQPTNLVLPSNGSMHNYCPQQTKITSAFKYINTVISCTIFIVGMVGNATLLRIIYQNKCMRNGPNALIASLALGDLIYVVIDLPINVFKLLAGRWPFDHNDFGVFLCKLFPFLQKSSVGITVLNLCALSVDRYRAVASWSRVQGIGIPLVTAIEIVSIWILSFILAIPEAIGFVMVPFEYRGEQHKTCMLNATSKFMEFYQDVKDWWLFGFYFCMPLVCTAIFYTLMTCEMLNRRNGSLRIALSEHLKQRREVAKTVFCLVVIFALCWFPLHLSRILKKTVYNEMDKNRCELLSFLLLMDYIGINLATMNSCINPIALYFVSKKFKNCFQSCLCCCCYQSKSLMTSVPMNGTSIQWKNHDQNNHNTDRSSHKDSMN

| affinity for the ETA receptor relative to ETB receptor (endothelin-A receptor) | Structure (SMILES) | effective concentration (endothelin receptor antagonist, Giersbergen et al. 2005) [µg/mL] | effective concentration (Yoshitomi et al. 2000, rabbit ciliary artery) [µM] |
| --- | --- | --- | --- |
| slightly higher affinity | COc1ccccc1Oc1c(NS(=O)(=O)c2ccc(C(C)(C)C)cc2)nc(-c2ncccn2)nc1OCCO [Bosentan] | 0.3 to 3 |  |
|  | CC[C@@H]1C(=O)OC[C@@H]1Cc1cncn1C [pilocarpine] |  | 1 to 10 |
